# In paper PMC2259182, “Identification of biomarkers for the antiangiogenic and antitumour activity of the superoxide dismutase 1 (SOD1) inhibitor tetrathiomolybdate (ATN-224)” (British Journal of Cancer, 2008):
# Target: T1, Purified bovine SOD1 (Bos taurus, UniProt P00442)
# T1 construct: commercial purified enzyme (Sigma)
# Test: WST-1 reduction by xanthine oxidase-generated superoxide
# Assay type: biochemical
# T1 sequence (P00442 2-152): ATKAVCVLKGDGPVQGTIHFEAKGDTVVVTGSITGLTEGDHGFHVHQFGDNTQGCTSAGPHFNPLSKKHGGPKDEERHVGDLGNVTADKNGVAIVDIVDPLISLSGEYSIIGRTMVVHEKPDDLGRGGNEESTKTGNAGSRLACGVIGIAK
compound,measurement,value
[S]=[Mo](=[S])([SH])[SH] [ATN-224],IC50,2.03 µM
